Test results from patent US4695569A, “Bicyclic heterocyclyl containing N-(bicyclic heterocyclyl)-4-piperidinamines” (Janssen Pharmaceutica N.V., priority 1987, dated 1987).
Structures can show the parent of a compound that is named as a salt. Where two headings read alike, the source gives them in different places.

How the values were obtained:
serotonin [1] = settings: known serotonin-antagonists, rats treated with compound 48/80; cited from earlier work
serotonin [2] = test: Antagonistic activity on the effects of serotonin in the gastric lesion test (lesions induced by compound 48/80); type: in vivo, rat (male, Wistar inbred strain)
Excerpt: The compounds of formula (I) and the pharmaceutically acceptable acid addition salts thereof are also potent serotonin-antagonists. The potency of the subject compounds as serotonin-antagonists is clearly evidenced by the results obtained in the following tests wherein the antagonistic activity of the subject compounds on the effect of serotonin is examined.
Antagonistic activity on the effects of serotonin in the gastric lesion test
Comound 48/80 (a mixture of oligomers obtained by condensation of 4-methoxy-N-methylbenzeneethanamine and formaldehyde) is a potent releaser of vasoactive amines from endogenous stores such as, for example, histamine and serotonin. […] The shock, followed by dead, can be avoided if the rats are pretreated with a classical H 1 antagonist.
Male rats of a Wistar inbred strain, weighing 220-250 g, were starved overnight, water being available ad libitum. The test compounds were administered orally as a solution or as a suspension in aqueous medium. A control rat and a "blank" rat received the test compound. One hour later 5-[4-(diphenylmethyl)-1-piperazinylmethyl]-1-methyl-1H-benzimidazole-2-methanol was administered subcutaneously to all rats at the dose of 2.5 mg/kg.
Four hours after the intravenous injection of compound 48/80, the rats were decapitated and the stomachs were removed. Subsequently the stomachs ere inspected for distension and contents (blood, fluid, food) and thoroughly rinsed. The macroscopic lesions were scored from 0 to +++, 0 corresponding to complete absence of visible lesions and the highest score corresponding to reddish rough patches covering more than half the glandular area.

[3] = test system: compound 48/80-induced lethality; test: Protection of rats from compound 48/80-induced lethality; type: in vivo, rat (male, inbred Wistar strain); settings: Rattus norvegicus, 4 h, read-out: Compound 48/80 lethality test in rats-ED50
Protocol: Protection of rats from compound 48/80-induced lethality
The protection from compound 48/80-induced lethal circulatory collapse appears to be a simple way of evaluating quantitatively the antihistaminic activity of test compounds. Male rats of an inbred Wistar strain, weighing 240-260 g were used in the experiment. After overnight starvation the rats were transferred to conditioned laboratories (temp.=21±1° C., relative humidity=65±5%).
The rats were treated subcutaneously or orally with a test compound or with the solvent (NaCl solution, 0.9%). […] Survival after 4 hours is therefore considered to be a safe criterion of a protective effect of drug administration.
The ED50 -values of the compounds of formula (I) are listed in the first column of table 1. Said ED50 -values are the values in mg/kg body weight at which the tested compounds protect 50% of the tested animals against compound 48/80-induced lethality.

[4] = Rattus norvegicus, po, 4 h; read-out: gastric lesion test ED50 (distension of the stomach and lesions in the glandular area completely absent in 50% of rats)
[5] = Rattus norvegicus, po, 4 h, read-out: gastric lesion test ED50 (distension of the stomach and lesions in the glandular area completely absent in 50% of rats)

Structure (SMILES) | prevention of cyanosis of ears and extremities, lesions in the glandular area of the stomach and abnormal gastric distension (serotonin [1]) | ED50 (serotonin [2]; [4]) [mg/kg] | ED50 [3] [mg/kg] | ED50 (serotonin [2]; [5]) [mg/kg]
O=C(CCCN1CCC2(CC1)C(=O)NCN2c1ccccc1)c1ccc(F)cc1 [spiperone] | prevent completely | – | – | –
CN1CCC(=C2c3ccccc3C=Cc3ccccc32)CC1 [cyproheptadine] | prevent completely | – | – | –
CN1CCN2c3ccccc3Cc3ccccc3C2C1 (centres unmarked) [mianserin] | prevent completely | – | – | –
Cc1nc2n(c(=O)c1CCN1CCC(Nc3nc4cccnc4n3Cc3ccc(F)cc3)CC1)CCCC2 [Compound 61] | – | 0.31 | 0.04 | –
Cc1nc2n(c(=O)c1CCN1CCC(Nc3nc4ccccc4n3Cc3ccc(F)cc3)CC1)CCCS2 [Compound 15] | – | 0.31 | 0.16 | –
c1coc(Cn2c(NC3CCN(CCNc4nc5cnccc5[nH]4)CC3)nc3ccccc32)c1 [Compound 111] | – | 0.08 | 0.02 | –
Fc1ccc(Cn2c(NC3CCN(CCNc4ncnc5[nH]cnc45)CC3)nc3ccccc32)cc1 [Compound 97] | – | 0.04 | 0.08 | –
Cn1cnc2c1c(=O)n(CCN1CCC(Nc3nc4cccnc4n3Cc3ccc(F)cc3)CC1)c(=O)n2C [Compound 12] | – | – | 0.16 | 0.31
Fc1ccc(Cn2c(NC3CCN(CCNc4nc5cnccc5[nH]4)CC3)nc3ccccc32)cc1 [Compound 109] | – | 0.04 | 0.04 | –
Cn1cnc2c1c(=O)n(CCN1CCC(Nc3nc4ccccc4n3Cc3ccc(F)cc3)CC1)c(=O)n2C [Compound 8] | – | – | 0.16 | 0.63
CN(C)CCCSc1ccccc1NC(=O)/C=C/c1ccccc1 [cinanserin] | prevent completely | – | – | –
Cc1cc(C)n2c(=O)c(CCN3CCC(Nc4nc5cccnc5n4Cc4ccco4)CC3)c(C)nc2c1 [Compound 77] | – | 0.31 | 0.16 | –
Fc1ccc(Cn2c(NC3CCN(CCNc4nc5cnccc5s4)CC3)nc3ccccc32)cc1 [Compound 104, N-[2-[4-[[1-[(4-fluorophenyl)methyl]-1H-benzimidazol-2-yl]amino]-1-piperidinyl]ethyl]thiazolo[4,5-c]pyridin-2-amine] | – | 0.31 | 0.16 | –
Cn1c(=S)n(CCN2CCC(Nc3nc4ccccc4n3Cc3ccco3)CC2)c(=O)c2ccccc21 [Compound 129, 3-[2-[4-[[1-(2-furanylmethyl)-1H-benzimidazol-2-yl]amino]-1-piperidinyl]ethyl]-2,3-dihydro-1-methyl-2-thioxo-4(1H)-quinazolinone] | – | 0.31 | 0.08 | –
Fc1ccc(Cn2c(NC3CCN(CCNc4nc5cnccc5[nH]4)CC3)nc3ncccc32)cc1 [Compound 112] | – | 0.16 | 0.02 | –
Cc1ccn2c(=O)c(CCN3CCC(Nc4nc5cccnc5n4Cc4ccco4)CC3)c(C)nc2c1 [Compound 74] | – | 0.16 | 0.04 | –
Cc1nc2scc(C)n2c(=O)c1CCN1CCC(Nc2nc3cccnc3n2Cc2ccco2)CC1 [Compound 10] | – | 0.16 | 0.08 | –
Cc1nc2n(c(=O)c1CCN1CCC(Nc3nc4ccccc4n3Cc3ccc(F)cc3)CC1)CCS2 [Compound 17] | – | 0.63 | 0.31 | –
Cn1cnc2c(NCCN3CCC(Nc4nc5ccccc5n4Cc4ccc(F)cc4)CC3)ncnc21 [Compound 94] | – | 0.63 | 0.31 | –
Cc1nc2sccn2c(=O)c1CCN1CCC(Nc2nc3cccnc3n2Cc2ccco2)CC1 [Compound 28] | – | – | 0.04 | 0.16
Cc1nc2n(c(=O)c1CCN1CCC(Nc3nc4cccnc4n3Cc3ccco3)CC1)C(C)CC(C)C2 (centres unmarked) [Compound 63] | – | 0.63 | 0.08 | –

Structure (SMILES) | prevention of cyanosis of ears and extremities, lesions in the glandular area of the stomach and abnormal gastric distension (serotonin [1]) | ED50 (serotonin [2]; [4]) [mg/kg] | ED50 [3] [mg/kg] | ED50 (serotonin [2]; [5]) [mg/kg]
Cn1c(=O)n(CCN2CCC(Nc3nc4ccccc4n3Cc3ccco3)CC2)c(=O)c2ccccc21 [Compound 34] | – | 0.16 | 0.08 | –
CN1CCC(=C2c3ccccc3CCc3sccc32)CC1 [pizotifen] | prevent completely | – | – | –
Fc1ccc(Cn2c(NC3CCN(CCc4cn5ccsc5n4)CC3)nc3ccccc32)cc1 [Compound 149, 1-[(4-fluorophenyl)methyl]-N-[1-[2-(imidazo[2,1-b]thiazol-6-yl)ethyl]-4-piperidinyl]-1H-benzimidazol-2-amine] | – | 0.08 | 0.08 | –
CC[C@@H](CO)NC(=O)[C@@H]1C=C2c3cccc4c3c(cn4C)C[C@H]2N(C)C1 [methysergide] | prevent completely | – | – | –
Fc1ccc(Cn2c(NC3CCN(CCNc4nc5ncccc5[nH]4)CC3)nc3ccccc32)cc1 [Compound 110] | – | 0.31 | 0.16 | –
Cc1nc2ccccn2c(=O)c1CCN1CCC(Nc2nc3ccccc3n2Cc2cccs2)CC1 [Compound 52] | – | – | 0.31 | 1.25
Cc1nc2n(c(=O)c1CCN1CCC(Nc3nc4ccccc4n3Cc3ccco3)CC1)CCS2 [Compound 18] | – | 0.16 | 0.08 | –
Cc1nc2sccn2c(=O)c1CCN1CCC(Nc2nc3ccccc3n2Cc2ccco2)CC1 [Compound 31] | – | 0.02 | 0.04 | –
O=c1[nH]c2ccccc2c(=O)n1CCN1CCC(Nc2nc3ccccc3n2Cc2ccco2)CC1 [Compound 24] | – | 0.63 | 0.08 | –
CN1C[C@H](CNC(=O)OCc2ccccc2)C[C@@H]2c3cccc4c3c(cn4C)C[C@H]21 [metergoline] | prevent completely | – | – | –
Fc1ccc(Cn2c(NC3CCN(CCc4cn5ccccc5n4)CC3)nc3ccccc32)cc1 [Compound 150, 1-[(4-fluorophenyl)methyl]-N-[1-[2-(imidazo[1,2-a]pyridin-2-yl)ethyl]-4-piperidinyl]-1H-benzimidazol-2-amine] | – | 0.63 | 0.08 | –
Fc1ccc(Cn2c(NC3CCN(Cc4cn5ccncc5n4)CC3)nc3ccccc32)cc1 [Compound 49] | – | 0.63 | 0.16 | –
Cc1nc2ccccn2c(=O)c1CCN1CCC(Nc2nc3cccnc3n2Cc2ccccn2)CC1 [Compound 55] | – | 0.16 | 0.08 | –
OCCn1cnc2c(NCCN3CCC(Nc4nc5ccccc5n4Cc4ccc(F)cc4)CC3)ncnc21 [Compound 93, 6-[[2-[4-[[1-[(4-fluorophenyl)methyl]-1H-benzimidazol-2-yl]amino]-1-piperidinyl]ethyl]amino]-9H-purine-9-ethanol] | – | 0.16 | 0.08 | –
Fc1ccc(Cn2c(NC3CCN(CCCCNc4nc5cnccc5[nH]4)CC3)nc3ccccc32)cc1 [Compound 121, N-[4-[4-[[1-[(4-fluorophenyl)methyl]-1H-benzimidazol-2-yl]amino]-1-piperidinyl]butyl]-1H-imidazo[4,5-c]pyridin-2-amine] | – | 0.02 | 0.02 | –
Fc1ccc(Cn2c(NC3CCN(CCNc4ncnc5c4ncn5Cc4ccccc4)CC3)nc3ccccc32)cc1 [Compound 95] | – | 0.63 | 0.16 | –
Cc1nc2n(c(=O)c1CCN1CCC(Nc3nc4ccccc4n3Cc3cccs3)CC1)CCCC2 [Compound 59] | – | 0.31 | 0.08 | –
Fc1ccc(Cn2c(NC3CCN(CCn4c(=S)[nH]c5cncnc54)CC3)nc3ccccc32)cc1 [Compound 143, 9-[2-[4-[[1-[(4-fluorophenyl)methyl]-1H-benzimidazol-2-yl]amino]-1-piperidinyl]ethyl]-7,9-dihydro-8H-purine-8-thione trihydrochloride.dihydrate] | – | 0.63 | 0.31 | –
NC(=O)C1(N2CCCCC2)CCN(CCCC(=O)c2ccc(F)cc2)CC1 [pipamperone] | prevent completely | – | – | –
Cc1nc2ccccn2c(=O)c1CCN1CCC(Nc2nc3ccccc3n2Cc2cscn2)CC1 [Compound 19] | – | 0.01 | 0.08 | –
